Results: the METLIN SMRT retention time set (Domingo-Almenara et al. 2019)

Experiment: gradient 5% acetonitrile 3 min, to 50% in 2 min, to 85% in 15 min, held 3 min, 100 µL/min
Settings: column: Zorbax Extend-C18 2.1 x 50 mm; eluents: water / acetonitrile, 0.1% formic acid
Outline: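 Pure standards were analyzed in mixtures of ~100 molecules using HPLC coupled to a quadrupole time-of-flight mass spectrometer, in both positive and negative ionization mode. Separation used a Zorbax Extend-C18 column (2.1 × 50 mm, 1.8 μm) at 100 μL/min, with water and acetonitrile each containing 0.1% formic acid. Dead and dwell volumes were 40 μL and 900 μL, and data were collected over 3 months. Retention time was read from computationally picked adduct peaks, each inspected manually.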

Row | SMILES | RP-LC retention time [s]
1 | CNC(=O)c1cc(-c2ccc(F)cc2)n[nH]1 | 659
2 | O=C(Cc1nnc(-c2ccsc2)o1)N1CCc2ccccc2C1 | 780
3 | O=c1ccc(-c2cccc(Cl)c2)nn1Cc1nc(-c2cccs2)no1 | 1000
4 | CCOCCCNC(=O)Nc1c(-c2cccc(C)c2)nc2ccccn12 | 863
5 | CNC(=O)CN1c2ccccc2NC2=C(C(=O)CC(C)(C)C2)C1c1ccc(OC)cc1 (stereo not given) | 729
6 | Cn1cnc2c(C(=O)Nc3ccccc3)nn(-c3ccccc3)c2c1=O | 835
7 | CC1CCN(c2cc(-c3nc(-c4ccccc4)no3)c3ccccc3n2)CC1 | 1360
8 | CC(=O)Nc1ccc(S(=O)(=O)N2CCCCC2c2cccnc2)cc1 (stereo not given) | 593
9 | COc1ccc(C)cc1NC(=O)c1cn2c(n1)CSCC2 | 841
10 | Cc1ccc(-c2nnc(-c3nc(NCCN4CCCC4)c4ccccc4n3)o2)cc1 | 713
11 | NC(=O)CCSc1nnc(SCC(=O)c2ccccc2)s1 | 675
12 | CNC(=O)[C@@H]1C[C@H](Oc2cccnc2)CN1C(=O)Cn1c(=O)oc2ccccc21 | 582
13 | CN1CCc2nnc(C3CCCN3C(=O)Nc3cc(Cl)cc(Cl)c3)n2CC1 (stereo not given) | 566
14 | Cc1noc(C)c1CN1CCN(C(=O)C(C)(C)Oc2ccc(Cl)cc2)CC1 | 606
15 | CC(=O)N1CCN(C(=O)C2CCCN(c3ccc(-c4ccc(C)c(C)c4)nn3)C2)CC1 (stereo not given) | 622
16 | CCCN1CCN(C(=O)CC(c2ccc(C)cc2)N2Cc3ccccc3C2=O)CC1 (stereo not given) | 666
17 | COc1ccccc1-c1nc(Cn2nnc(-c3nc(-c4cccc(Cl)c4)no3)c2C)c(C)o1 | 1240
18 | Cc1nc(-c2csc(S(=O)(=O)N3CCCC(C(=O)NCc4ccc5c(c4)OCO5)C3)c2)no1 (stereo not given) | 880
19 | O=C(COc1ccc(Br)cc1)NCc1ccc2c(c1)OCCCO2 | 933
20 | O=C(NCCc1nc2cccnc2n1-c1ccccc1)c1ccccc1 | 708
21 | CCc1noc(-c2cccn2Cc2ccc(OC)c(F)c2)n1 | 1100
22 | Cn1nc(-c2nnc(-c3ccccc3Cl)o2)c2c1CCN(C(=O)c1ccc(C(F)(F)F)cc1)C2 | 943
23 | CC(=O)Nc1ccc(S(=O)(=O)NCCc2csc(C)n2)cc1 | 600

Row | SMILES | RP-LC retention time [s]
24 | COCCCNC(=O)C1CCN(c2ncccc2S(=O)(=O)N2CCCCC2)CC1 | 728
25 | O=C(Nc1nnc(C2CC(=O)N(c3ccccc3)C2)o1)c1ccc(F)cc1 (stereo not given) | 708
26 | COc1ccc(CNC(=O)c2nc3cccnc3n(C)c2=O)cc1 | 742
27 | COc1cccc(NC(=O)Cn2c3ccccc3n3c(=O)cc(-c4ccc(F)cc4)nc23)c1 | 961
28 | O=C(O)[C@@H]1CN(Cc2ccccc2)C[C@@H]1C(=O)N1CCc2ccccc21 | 641
29 | CCOc1ccc2nc(NC(=O)C3CCCN(c4ncnc5c4nc4n5CCCCC4)C3)sc2c1 (stereo not given) | 1000
30 | O=C(Cn1c(=O)c2cccn2c2ccccc21)NCCN1CCOCC1 | 592
31 | O=c1cc(-c2cccnc2)oc2c1ccc1ccccc12 | 979
32 | Cc1cc(-c2csc(S(=O)(=O)NCCCN3CCN(c4ccccc4F)CC3)c2)on1 | 704
33 | COc1ccc(Br)cc1S(=O)(=O)Nc1cc(-c2cn3ccccc3n2)ccc1C | 701
34 | Cc1ccc(-c2csc(NC(=O)c3ccc(Br)cc3)n2)c(C)c1 | 1270
35 | Cc1ccc([N+](=O)[O-])cc1NC(=O)c1cccc([N+](=O)[O-])c1O | 913
36 | Cc1ccc(C(O)CN2CCN(c3ccccn3)CC2)c(C)c1 (stereo not given) | 573
37 | COc1ccccc1CNS(=O)(=O)c1ccc2c(c1)C(=O)N(C)c1ncccc1O2 | 907
38 | COc1ccc(OC)c(-c2ccc(=O)n(CCc3nc(-c4ccc(C)cc4)no3)n2)c1 | 1020
39 | COc1ccc(-c2noc(NCCc3ccc(OC)c(OC)c3)n2)cc1 | 891
40 | Cc1cc(C)n(-c2ncnc3c2cnn3-c2ccc(F)cc2)n1 | 1420
41 | O=C(NC1CCN(C(=O)c2cc(-c3cccc(Cl)c3)n[nH]2)CC1)c1cccs1 | 718
42 | CCC(C)NC(=O)Cn1c(=O)n(CC(C)C)c(=O)c2nscc21 (stereo not given) | 735
43 | Cn1c(=O)c(C(=O)NCc2ccccc2Cl)nc2cccnc21 | 728
44 | O=C(CCC1CCCN(c2cc(NC3CC3)ncn2)C1)NC1CCN(Cc2ccccc2)CC1 (stereo not given) | 570
45 | CCOc1ccc(-c2nc(CSCC(=O)NCc3cccs3)c(C)o2)cc1 | 1030
